We go through 31 compounds from US9707234B2, “Spirocyclic hetercycle compounds useful as HIV integrase inhibitors” (MERCK SHARP & DOHME CORP., priority 2013, dated 2017).

Where two headings read alike, the source gives them in different places.

For this experiment, the system named is HIV-1 (H9IIIB or NL4-3 virus) replication in MT4-GFP cells. Nature of the experiment: microbe, parasite or virus in culture. In kind it is cell-based. The settings on record: inhibition of reproductive ratio R0, 48-72 h post-infection.
[1] abbreviates: Human immunodeficiency virus 1, NL43, MT4-GFP cells infected with HIV-1, 10% normal human serum, read-out: ViKinG IP (nM) with 10% NHS.
Where [2] appears, read: Human immunodeficiency virus 1, NL43, MT4-GFP cells infected with HIV-1, 100% normal human serum, read-out: ViKinG IP (nM) with 100% NHS.
Setting [3] is: Human immunodeficiency virus 1, NL43, MT4-GFP cells infected with HIV-1, serum free conditions (0% NHS), read-out: ViKinG IP (nM) with 0% NHS.
Where [4] appears, read: MT4-GFP cells infected with HIV-1, 100% normal human serum, read-out: ViKinG IP (nM) with 100% NHS.
Where [5] appears, read: MT4-GFP cells infected with HIV-1, serum free conditions (0% NHS), read-out: ViKinG IP (nM) with 0% NHS.

Take `CCN1C(=O)c2c(O)c(=O)c(-c3nnc(Cc4ccc(F)cc4F)s3)cn2N(C)C12CCN(C(C)=O)CC2` [Compound 10]: the IC50 was 57 nM under setting [1] and 1500 nM under setting [2].

As to `CN1C(=O)c2c(O)c(=O)c(C(=O)NCc3ccc(F)c(Cl)c3F)cn2CC12CCOC2` (single isomer, unassigned) [Compound 56], the IC50 under setting [2] worked out at 100 nM and the IC50 under setting [3] came out at 1.2 nM.

On to `CCN1C(=O)c2c(O)c(=O)c(C(=O)NCc3ccc(F)cc3F)cn2CC12CCCOC2` (centres unmarked) [Compound 82], for which the IC50 reads like this: under setting [4], 680 nM; under setting [5], 3.1 nM.

As for `CCN1n2cc(C(=O)NCc3ccc(F)cc3F)c(=O)c(O)c2C(=O)N(C)C12CCOC2` (single isomer, unassigned) [Compound 149], the IC50 is, setting by setting: under setting [3], 0.7 nM; under setting [4], 144 nM.

Take `CCOC(=O)N1CCC2(CC1)N(C)C(=O)c1c(O)c(=O)c(-c3nnc(Cc4ccc(F)cc4F)s3)cn1N2C` [Compound 19]: the IC50 turned out to be 9 nM under setting [1] and 133 nM under setting [2].

As for `COCCCN1C(=O)c2c(O)c(=O)c(C(=O)NCc3ccc(F)cc3F)cn2CC12CCOC2` (single isomer, unassigned) [Compound 73], the IC50 was determined as 30 nM under setting [2] and 1.8 nM under setting [3].

Turning to `COCCN1C(=O)c2c(O)c(=O)c(C(=O)NCc3ccc(F)cc3F)cn2CC12CCNCC2` [Compound 87], the IC50 under setting [2] is 98 nM and the IC50 under setting [3] came to 16 nM.

`CCN1C(=O)c2c(O)c(=O)c(C(=O)NCc3ccc(F)cc3F)cn2N(C)C12CCNC2` (single isomer, unassigned) [Compound 171]: the IC50 runs as follows: under setting [2], 88 nM; under setting [3], 1.8 nM.

On to `CCOCCN1C(=O)c2c(O)c(=O)c(C(=O)NCc3ccc(F)cc3F)cn2N(C)C12COC2` [Compound 146], for which the IC50 by setting is: under setting [2], 485 nM; under setting [3], 10.9 nM.

On to `COCCCN1C(=O)c2c(O)c(=O)c(C(=O)NCc3ccc(F)cc3F)cn2CC12CCCOC2` (single isomer, unassigned) [Compound 86], for which the IC50 reads like this: under setting [4], 177 nM; under setting [5], 9.3 nM.

On to `CN1C(=O)c2c(O)c(=O)c(C(=O)NCc3ccc(F)cc3F)cn2N(Cc2ccccc2)C12CCOC2` (single isomer, unassigned) [Compound 162], for which the IC50 under setting [4] is 72 nM.

Regarding `CCN1C(=O)c2c(O)c(=O)c(-c3nnc(Cc4ccc(F)cc4F)s3)cn2N(C)C12CCN(C(=O)OC(C)C)CC2` [Compound 9], the IC50 is, setting by setting: under setting [2], 344 nM; under setting [3], 89.7 nM.

As to `CCN1C(=O)c2c(O)c(=O)c(C(=O)NCc3ccc(F)cc3F)cn2N(C)C12COC2` [Compound 144], the IC50 runs as follows: under setting [1], 60 nM; under setting [2], 591 nM; under setting [3], 1.5 nM.

With `CCN1C(=O)c2c(O)c(=O)c(-c3nnc(Cc4ccc(F)cc4F)s3)cn2N(C)C12CCOC2` (single isomer, unassigned) [Compound 35], the IC50 is, setting by setting: under setting [4], 133 nM; under setting [5], 1.7 nM.

For the compound `COCCN1C(=O)c2c(O)c(=O)c(C(=O)NCc3ccc(F)cc3F)cn2N(C)C12CCOC2` (single isomer, unassigned) [Compound 122], the IC50 runs as follows: under setting [4], 1990 nM; under setting [5], 2.4 nM.

As to `CCN1C(=O)c2c(O)c(=O)c(-c3nnc(Cc4ccc(F)cc4F)s3)cn2N(C)C12CCSCC2` [Compound 15], the IC50 under setting [1] was 178 nM, the IC50 under setting [2] came out at 3140 nM and the IC50 under setting [3] amounted to 8 nM.

Consider `CN1C(=O)c2c(O)c(=O)c(C(=O)NCc3c(F)cccc3F)cn2N(C)C12CCOC2` (single isomer, unassigned) [Compound 116], for which the IC50 came out at 42 nM under setting [4] and 0.7 nM under setting [5].

With `CN1C(=O)c2c(O)c(=O)c(-c3nnc(Cc4ccc(F)cc4F)s3)cn2N(C)C12CCN(S(=O)(=O)N(C)C)CC2` [Compound 24], the IC50 came out at 6 nM under setting [1], 86 nM under setting [2] and 11.9 nM under setting [3].

`CCOP(=O)(CCN1n2cc(C(=O)NCc3ccc(F)cc3F)c(=O)c(O)c2C(=O)N(C)C12CCOC2)OCC` (single isomer, unassigned) [Compound 159]: under setting [2], the IC50 stood at 71 nM.

On to `COCCN1C(=O)c2c(O)c(=O)c(C(=O)NCc3ccc(F)cc3F)cn2CC12CCCOC2` (single isomer, unassigned) [Compound 84], for which the IC50 runs as follows: under setting [4], 1960 nM; under setting [5], 4.5 nM.

Consider `CCOC(=O)N1CCC2(C1)N(CC)C(=O)c1c(O)c(=O)c(C(=O)NCc3ccc(F)cc3F)cn1N2C` (single isomer, unassigned) [Compound 140], for which the IC50 is, setting by setting: under setting [4], 48 nM; under setting [5], 1.7 nM.

`CCN1C(=O)c2c(O)c(=O)c(C(=O)NCc3ccc(F)cc3F)cn2N(C)C12CCOC2` (single isomer, unassigned) [Compound 120]: the IC50 is, setting by setting: under setting [4], 266 nM; under setting [5], 2.1 nM.

With `CN1C(=O)c2c(O)c(=O)c(-c3nnc(Cc4ccc(F)cc4F)s3)cn2N(C)C12CCSCC2` [Compound 25], the IC50 amounted to 17 nM under setting [1], 257 nM under setting [2] and 5.3 nM under setting [3].

Turning to `CCN1C(=O)c2c(O)c(=O)c(-c3nnc(Cc4ccc(F)cc4F)s3)cn2N(C)C12CCN(S(=O)(=O)N(C)C)CC2` [Compound 13], the IC50 came out at 14 nM under setting [1], 106 nM under setting [2] and 8.6 nM under setting [3].

In the case of `COCCN1C(=O)c2c(O)c(=O)c(C(=O)NCc3ccc(F)cc3F)cn2CC12CCOC2` (single isomer, unassigned) [Compound 50], the IC50 is 107 nM under setting [4] and 3.1 nM under setting [5].

As to `CN1C(=O)c2c(O)c(=O)c(-c3nnc(Cc4ccc(F)cc4F)s3)cn2N(C)C12CCN(C(N)=O)CC2` [Compound 29], the IC50 by setting is: under setting [2], 2080 nM; under setting [3], 89.1 nM.

On to `CCC(c1nnc(-c2cn3c(c(O)c2=O)C(=O)N(CC)C2(CCOCC2)C3)s1)c1ccc(F)cc1F` (centres unmarked) [Compound 100], for which the IC50 under setting [2] worked out at 704 nM and the IC50 under setting [3] was 29.2 nM.

For `CCN1C(=O)c2c(O)c(=O)c(-c3nnc(Cc4ccc(F)cc4F)s3)cn2N(C)C12CCN(c1ncccn1)CC2` [Compound 17], the IC50 reads like this: under setting [2], 1520 nM; under setting [3], 29.3 nM.

`CCCCCN1C(=O)c2c(O)c(=O)c(C(=O)NCc3ccc(F)cc3F)cn2CC12CCOCC2` [Compound 45]: the IC50 runs as follows: under setting [2], 236 nM; under setting [3], 6.4 nM.

On to `CN1C(=O)c2c(O)c(=O)c(C(=O)NCc3ccc(F)cc3F)cn2CC12CCOCC2` [Compound 39], for which the IC50 by setting is: under setting [2], 49 nM; under setting [3], 4.2 nM.

Consider `CCN1C(=O)c2c(O)c(=O)c(C(=O)NCc3ccc(F)cc3F)cn2N(C)C12CCNC2` (single isomer, unassigned) [Compound 172], for which the IC50 by setting is: under setting [4], 61 nM; under setting [5], 1.6 nM.
